Reference: patent publication US20200062696A1, “COMPOSITIONS AND METHODS FOR INHIBITING RETICULON 4” (THE REGENTS OF THE UNIVERSITY OF CALIFORNIA, priority 2017, published 2020)

Biological target: T1, pure human RTN4 protein (Homo sapiens, UniProt Q9NQC3)
T1 construct: purchased Fisher Scientific
T1 sequence (Q9NQC3 1-1192): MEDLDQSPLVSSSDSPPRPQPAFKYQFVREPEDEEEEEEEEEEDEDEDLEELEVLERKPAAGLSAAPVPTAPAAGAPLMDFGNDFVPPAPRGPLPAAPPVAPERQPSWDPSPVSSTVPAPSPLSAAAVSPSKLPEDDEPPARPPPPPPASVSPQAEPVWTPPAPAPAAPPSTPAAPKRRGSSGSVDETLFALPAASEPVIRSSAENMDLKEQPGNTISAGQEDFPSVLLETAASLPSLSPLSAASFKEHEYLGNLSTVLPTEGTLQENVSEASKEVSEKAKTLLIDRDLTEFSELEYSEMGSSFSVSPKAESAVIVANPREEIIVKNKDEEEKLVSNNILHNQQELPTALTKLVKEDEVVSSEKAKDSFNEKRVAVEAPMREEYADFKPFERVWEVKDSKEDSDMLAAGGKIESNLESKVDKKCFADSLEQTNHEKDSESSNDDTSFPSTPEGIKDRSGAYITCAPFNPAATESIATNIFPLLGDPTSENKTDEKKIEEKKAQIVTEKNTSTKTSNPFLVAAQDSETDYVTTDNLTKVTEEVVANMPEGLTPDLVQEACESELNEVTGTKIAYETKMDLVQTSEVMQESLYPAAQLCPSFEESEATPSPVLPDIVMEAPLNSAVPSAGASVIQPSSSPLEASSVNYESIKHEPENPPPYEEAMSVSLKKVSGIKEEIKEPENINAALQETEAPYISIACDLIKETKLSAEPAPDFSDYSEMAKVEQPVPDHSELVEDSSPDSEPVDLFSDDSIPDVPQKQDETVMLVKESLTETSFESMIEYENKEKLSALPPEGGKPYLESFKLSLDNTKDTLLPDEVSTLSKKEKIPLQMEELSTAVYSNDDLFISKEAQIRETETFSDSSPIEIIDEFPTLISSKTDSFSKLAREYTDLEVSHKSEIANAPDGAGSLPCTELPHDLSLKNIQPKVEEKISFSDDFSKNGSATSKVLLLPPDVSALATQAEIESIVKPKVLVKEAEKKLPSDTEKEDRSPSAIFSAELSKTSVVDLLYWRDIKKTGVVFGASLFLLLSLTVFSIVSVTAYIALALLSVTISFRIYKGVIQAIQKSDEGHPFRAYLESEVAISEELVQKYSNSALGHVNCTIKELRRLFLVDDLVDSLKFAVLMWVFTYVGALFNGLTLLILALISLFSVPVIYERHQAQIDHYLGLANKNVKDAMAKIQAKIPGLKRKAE
Assay: Gel-based ABPP competition against IAyne labeling of pure human RTN4 protein
Type: binding
Details: pure human RTN4 protein, gel-based ABPP
Experimental: FIGS. 11A-11C. DKM 3-30 and analogs. (FIG. 11A) Structures of DKM 3-30 and analogs. (FIG. 11B) Gel-based ABPP analysis showing competition side-by-side competition studies of DKM 3-30, YP 1-46, and AMR 1-125 against IA-rhodamine labelling of pure human RTN4. Shown are the 50% inhibitory concentration (IC50) values for each compound. (FIG. 11C) Serum-free cell survival of U2OS (48 h) or SW620 (24 h) cells treated with DMSO vehicle or each compound (50 μM). Data in (C) are presented as mean±sem. Significance is expressed as *p<0.001 compared to vehicle-treated controls.
Gel-Based ABPP. Gel-based ABPP methods were performed as previously described^24. Recombinant RTN4 (0.06 μg) protein (RTN4-Fisher Scientific) were pre-treated with DMSO or DKM 3-30, respectively, for 1 h at 37° C. in an incubation volume of 50 μL PBS, and were subsequently treated with IAyne (10 μM final concentration) for 30 min at 37° C. CuAAC was performed to append rhodamine-azide onto IAyne probe-labeled proteins. The samples were separated by SDS/PAGE and scanned using a ChemiDoc MP (Bio-Rad Laboratories, Inc). Inhibition of target labeling was assessed by densitometry using ImageStudio Light software.

C=CC(=O)Nc1ccc(Oc2ccc(Cl)cc2)cc1 [DKM 3-30, N-(4-(4-chlorophenoxy)phenyl)acrylamide]
displacement of IAyne labelling of RTN4: validated this hit
